Experiment [1] concerns the target T1, HER2 wildtype (WT) protein (Homo sapiens, UniProt P04626).
T1 construct: BT474 and N87 cell lines which endogenously overexpress the HER2 wildtype (WT) protein; endogenous in cells; host or cells: BT474, N87
The experiment can be described thus: HER2 signaling (pHER2 Tyr1248/total HER2 MSD) in BT474 cells. It counts as cell-based. As to conditions: 1.5 hr compound, 1% FBS. The essentials: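 BT474, N87 (HER2 WT) and NCI-H1781 (HER2 G776delinsVC) cells were treated for 1.5 h at 37° C in 1% FBS medium with compound at 0.0005–1.1 μM. pHER2 Tyr1248 was measured by MSD on whole-cell lysates and normalized to total HER2 as % DMSO. EC50 came from a variable-slope sigmoidal fit.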

For another experiment, the target named is HER2YVMA (Homo sapiens, UniProt P04626, INS775YVMA). The experiment can be described thus: HER2 signaling (pHER2) in Hek293-HER2YVMA cells. The settings on record: 1.5 hr compound, 1% FBS, read-out: HEKYVMA pHER2 EC50. It counts as cell-based. Set-up: expressed in transfected cells; host or cells: HEK293 (pool), Ba/F3 (clones), BEAS2B (clones); lentiviral vector pCDH-CMV-MCS-EF1-Neo. Here is the method:
Cell culture, plasmid cloning, and lentiviral transduction were carried out according to standard procedures. The Human HER2 cDNA construct in pCMV6-Entry for the HER2 wildtype (WT) expression was obtained from Origene. The HER2 cDNA including the 12-nucleotide insertion corresponding to YVMA insertion (HER2YVMA) was codon optimized, synthesized and cloned by GenScript (Piscataway, NJ) in pcDNA3.1. The lentiviral constructs expressing HER2YVMA and HER2 WT were sub-cloned using PCR at System Biosciences (SBI, Mountainview, CA) into lentiviral vectors pCDH-CMV-MCS-EF1-Neo and lentiviral particles were generated.
Engineered lines expressing HER2YVMA and HER2 WT were prepared in HEK293 (human embryonic kidney cells), Ba/F3 (Interleukin 3 (IL3)-dependent murine pro B cell line), and BEAS2B (primary immortalized human bronchial epithelial cell line). Ba/F3, BEAS2B, and HEK293 cells were obtained from the American Type Culture Collection (ATCC, Manassas, VA). Parental Ba/F3 cells were grown in suspension in complete RPMI 1640 supplemented with 10% FBS and 1% P/S and 10 ng/ml interleukin 3 (IL3, Sigma-Aldrich). Hek293 and BEAS2B cells were grown as monolayers in DMEM supplemented with 10% FBS and 1% P/S. All cells were maintained and propagated in a humidified 5% CO2 incubator at 37° C.
To generate Ba/F3, BEAS2B, and Hek-293 cells engineered with lentivirus to express HER2 WT or HER2YVMA, the cells were transduced with lentiviruses at multiplicity of infection (MOI) of 1 or 10; transduced cells were selected and maintained with G418 ([…]) (Geneticin, Life Technologies, Carlsbad, CA). Ba/F3 engineered cells were subjected to gradual withdrawal of interleukin 3 (IL-3, Sigma-Aldrich). After selection, IL3 independent Ba/F3 HER2YVMA, and BEAS2B HER2YVMA cells were cloned by limiting dilution. Hek293 HER2YVMA cells were used as pool. HER2 and phospho HER2 levels were confirmed by flow cytometery and immunoassay (MSD, Meso-Scale Discovery, Rockville, Maryland).
HER2 signaling was assessed in BT474 and N87 cell lines which endogenously overexpress the HER2 wildtype (WT) protein, in NCI-H1781 cells which endogenously expresses a HER2 mutant protein containing a VC insertion in the kinase domain (HER2VC or G776delinsVC), and in engineered cell lines transduced to express the Her2 mutant protein containing the YVMA insertion (Hek293-HER2YVMA and BEAS2B-HER2YVMA).
BT474, N87, and NCI-H1781 were plated in 96-well tissue-culture treated plates (Corning Costar, Sigma-Aldrich) in full media and incubated overnight. Hek293-HER2YVMA and BEAS2B-HER2YVMA cells were plated in 96-well poly-D-lysine treated plates (BD Bioscience, San Jose, CA). For treatment with test compounds, the media was replaced with corresponding low serum media (1% FBS) containing test compound at 1.1, 0.37, 0.12, 0.041, 0.014, 0.005, 0.0014, 0.0005 μM or DMSO control (0.1%). Cells were incubated with compound for 1.5 hr at 37° C. After compound treatment, the media was removed and cells were lysed for 30 min on ice in complete MSD lysis buffer (prepared using MSD base lysis buffer (Meso-Scale Discovery) supplemented with cOmplete, EDTA-free Protease inhibitor cocktail (Roche), Phosphatase Inhibitor Cocktails 2 and 3 (Sigma-Aldrich), and 1 mM PMSF (Sigma-Aldrich)). Lysates were stored at −70° C. until further analysis.
HER2 signaling was evaluated using phospho (Tyr1248)/total ErbB2 whole cell lysate MSD plates (Meso-Scale Discovery, Gaithersburg, MD). The phospho HER2 signal was normalized to total HER2 for each sample; results are reported as % DMSO control. The normalized data was fitted using a sigmoidal curve analysis program (Graph Pad Prism version 6) with variable Hill slope to determine EC50 values.
The HER2 signaling results are provided in Table 4, under columns titled “BT474-pHER2 EC50”, “N87-pHER2 EC50”, and “NCI-H1781-pHER2 EC50”. […]

pEC50: −log10 of the molar value. Bounds are passed on as bounds.

The values below come from patent US20240391931A1 (Bristol-Myers Squibb Company, priority 2021, published 2024).

HER2YVMA, sequence (P04626 with tags, fused parts or gaps INS775YVMA): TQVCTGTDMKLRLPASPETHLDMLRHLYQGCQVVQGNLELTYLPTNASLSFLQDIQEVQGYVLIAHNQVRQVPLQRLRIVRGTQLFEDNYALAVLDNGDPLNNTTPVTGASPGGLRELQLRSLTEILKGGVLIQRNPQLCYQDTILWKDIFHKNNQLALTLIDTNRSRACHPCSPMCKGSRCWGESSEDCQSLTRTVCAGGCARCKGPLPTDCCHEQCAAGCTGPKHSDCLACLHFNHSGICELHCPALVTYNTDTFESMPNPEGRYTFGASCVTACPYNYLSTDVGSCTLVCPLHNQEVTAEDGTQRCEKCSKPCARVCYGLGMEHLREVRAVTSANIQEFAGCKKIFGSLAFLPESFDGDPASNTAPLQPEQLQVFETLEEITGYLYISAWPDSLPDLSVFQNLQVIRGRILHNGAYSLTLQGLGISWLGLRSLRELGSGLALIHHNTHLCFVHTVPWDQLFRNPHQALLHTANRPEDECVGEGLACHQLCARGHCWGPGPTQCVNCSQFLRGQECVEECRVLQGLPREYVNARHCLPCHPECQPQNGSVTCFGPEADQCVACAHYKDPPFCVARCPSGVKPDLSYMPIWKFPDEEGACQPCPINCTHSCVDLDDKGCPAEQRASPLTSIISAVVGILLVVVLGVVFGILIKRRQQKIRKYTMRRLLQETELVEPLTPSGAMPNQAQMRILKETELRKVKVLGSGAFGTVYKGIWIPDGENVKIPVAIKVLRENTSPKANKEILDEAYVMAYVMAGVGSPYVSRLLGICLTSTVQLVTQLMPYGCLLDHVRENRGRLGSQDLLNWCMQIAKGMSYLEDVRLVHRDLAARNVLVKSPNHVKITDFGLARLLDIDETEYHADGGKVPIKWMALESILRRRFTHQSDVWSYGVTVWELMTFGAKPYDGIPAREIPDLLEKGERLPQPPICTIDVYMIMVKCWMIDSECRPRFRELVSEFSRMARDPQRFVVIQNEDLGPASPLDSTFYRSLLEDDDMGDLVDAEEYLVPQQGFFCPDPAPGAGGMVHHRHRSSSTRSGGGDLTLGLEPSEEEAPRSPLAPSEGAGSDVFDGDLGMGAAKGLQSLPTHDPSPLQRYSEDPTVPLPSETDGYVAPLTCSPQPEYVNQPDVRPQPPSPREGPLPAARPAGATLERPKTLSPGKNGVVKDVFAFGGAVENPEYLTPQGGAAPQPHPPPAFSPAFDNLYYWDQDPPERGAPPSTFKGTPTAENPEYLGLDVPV
T1 sequence (P04626 23-1255): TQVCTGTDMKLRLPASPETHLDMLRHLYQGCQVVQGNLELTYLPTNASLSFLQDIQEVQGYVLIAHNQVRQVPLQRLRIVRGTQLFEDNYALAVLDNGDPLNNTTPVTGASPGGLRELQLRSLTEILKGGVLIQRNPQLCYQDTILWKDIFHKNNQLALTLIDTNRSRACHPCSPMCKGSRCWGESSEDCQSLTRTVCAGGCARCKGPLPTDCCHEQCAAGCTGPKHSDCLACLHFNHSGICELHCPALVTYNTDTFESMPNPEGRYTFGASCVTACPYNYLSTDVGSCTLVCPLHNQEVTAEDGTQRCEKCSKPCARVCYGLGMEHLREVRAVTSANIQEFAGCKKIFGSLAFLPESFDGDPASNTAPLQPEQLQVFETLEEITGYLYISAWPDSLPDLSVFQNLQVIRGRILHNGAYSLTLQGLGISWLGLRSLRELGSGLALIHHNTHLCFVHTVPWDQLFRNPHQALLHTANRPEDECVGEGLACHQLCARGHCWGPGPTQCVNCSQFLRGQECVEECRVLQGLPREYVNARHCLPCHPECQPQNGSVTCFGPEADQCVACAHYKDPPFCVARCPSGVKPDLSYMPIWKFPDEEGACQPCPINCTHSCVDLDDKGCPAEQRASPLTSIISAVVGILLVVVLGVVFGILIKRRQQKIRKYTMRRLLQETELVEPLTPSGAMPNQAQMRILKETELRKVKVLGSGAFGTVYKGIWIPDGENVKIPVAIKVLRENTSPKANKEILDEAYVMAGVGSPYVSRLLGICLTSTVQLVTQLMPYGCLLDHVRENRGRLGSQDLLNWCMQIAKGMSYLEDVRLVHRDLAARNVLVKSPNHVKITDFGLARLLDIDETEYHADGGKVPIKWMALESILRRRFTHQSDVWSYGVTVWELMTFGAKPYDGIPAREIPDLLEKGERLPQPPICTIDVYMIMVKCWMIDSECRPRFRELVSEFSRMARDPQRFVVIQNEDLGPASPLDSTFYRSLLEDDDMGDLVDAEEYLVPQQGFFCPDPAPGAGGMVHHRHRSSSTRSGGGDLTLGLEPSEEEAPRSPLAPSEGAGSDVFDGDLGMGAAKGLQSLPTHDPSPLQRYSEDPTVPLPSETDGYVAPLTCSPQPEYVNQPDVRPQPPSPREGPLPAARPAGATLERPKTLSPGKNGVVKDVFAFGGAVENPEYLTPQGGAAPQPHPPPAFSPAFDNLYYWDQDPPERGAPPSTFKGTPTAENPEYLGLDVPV

By pEC50 is commonly meant −log10 of the EC50, conventionally taken in molar units. Take `Cc1ccc(Oc2ccc(Nc3ncnc4sc5c(c34)C[C@@H](C)N(C(=O)/C=C/CN(C)C)[C@@H]5C)cc2C)cn1` (racemic) [Compound 165, (E)-1-(6,8-trans-dimethyl-4-((3-methyl-4-((6-methylpyridin-3-yl)oxy)phenyl)amino)-5,8-dihydropyrido[4′,3′:4,5]thieno[2,3-d]pyrimidin-7(6H)-yl)-4-(dimethylamino)but-2-en-1-one]: the figures for the pEC50 (in experiment [1]; at HER2YVMA) were > 7.00 and 6.46 to 7.00, respectively.

As to `Cc1ccc(Oc2ccc(Nc3ncnc4sc5c(c34)CCN(C(=O)/C=C/CN3CCO[C@H](CO)C3)C5)cc2C)cn1` [Compound 136], the pEC50 (in experiment [1]; on HER2YVMA) was > 7.00 throughout.

For the compound `Cc1ccc(Oc2ccc(Nc3ncnc4sc5c(c34)CCN(C(=O)/C=C/CN3CCCC34CCC4)C5)cc2C)cn1` [Compound 115], the pEC50 (in experiment [1]; at HER2YVMA) was > 7.00 throughout.

For `Cc1ccc(Oc2ccc(Nc3ncnc4sc5c(c34)CN(C(=O)/C=C/CN(C)C)CC5)cc2C)cn1` [Compound 108, (E)-4-(Dimethylamino)-1-(4-((3-methyl-4-((6-methylpyridin-3-yl)oxy)phenyl)amino)-7,8-dihydropyrido[3′,4′:4,5]thieno[2,3-d]pyrimidin-6(5H)-yl)but-2-en-1-one], the pEC50 (in experiment [1]; on HER2YVMA) was > 7.00 in each case.

In the case of `Cc1ccc(Oc2ccc(Nc3ncnc4sc5c(c34)CCN(C(=O)/C=C/CN3CCCC(F)(CO)C3)C5)cc2C)cn1` (stereo not shown) [Compound 150], the pEC50 (in experiment [1]; at HER2YVMA) was > 7.00 each time.

`Cc1ccc(Oc2ccc(Nc3ncnc4sc5c(c34)C[C@@H](C)N(C(=O)/C=C/CN(C)C)[C@H]5C)cc2C)cn1` (racemic) [Compound 149, (E)-1-(6,8-cis-dimethyl-4-((3-methyl-4-((6-methylpyridin-3-yl)oxy)phenyl)amino)-5,8-dihydropyrido[4′,3′:4,5]thieno[2,3-d]pyrimidin-7(6H)-yl)-4-(dimethylamino)but-2-en-1-one]: the pEC50 (in experiment [1]; on HER2YVMA) was > 7.00 in each case.

Consider `Cc1ccc(Oc2ccc(Nc3ncnc4sc5c(c34)CCN(C(=O)/C=C/CN3CC[C@H](CO)C3)C5)cc2C)cn1` [Compound 133], for which the pEC50 (in experiment [1]; at HER2YVMA) was > 7.00 each time.

With `Cc1ccc(Oc2ccc(Nc3ncnc4sc5c(c34)C(C)N(C(=O)C=CCN(C)C)C5)cc2C)cn1` (single isomer, unassigned) [Compound 148], the results for the pEC50 (in experiment [1]; on HER2YVMA) were 6.46 to 7.00 and 6.00 to 6.46, respectively.

For `C=CC(=O)N1Cc2sc3ncnc(Nc4ccc(Oc5ccc(C)nc5)c(C)c4)c3c2C(C)C1` (single isomer, unassigned) [Compound 145], the pEC50 (in experiment [1]; at HER2YVMA) was > 7.00 throughout.

With `Cc1cc(Nc2ncnc3sc4c(c23)CN(C(=O)/C=C/CN(C)C)C4)ccc1Oc1ccc2ncnn2c1` [Compound 111, (E)-1-(4-((4-([1,2,4]Triazolo[1,5-a]pyridin-6-yloxy)-3-methylphenyl)amino)-5H-pyrrolo[3′,4′:4,5]thieno[2,3-d]pyrimidin-6(7H)-yl)-4-(dimethylamino)but-2-en-1-one], the pEC50 in experiment [1] is > 7.00; at HER2YVMA, 6.46 to 7.00.

On to `Cc1cc(Nc2ncnc3sc4c(c23)CCN(C(=O)/C=C/CN(C)C)C4)ccc1Oc1ccc2nccn2c1` [Compound 109, (E)-4-(dimethylamino)-1-(4-((4-(imidazo[1,2-a]pyridin-6-yloxy)-3-methylphenyl)amino)-5,6-dihydropyrido[4′,3′:4,5]thieno[2,3-d]pyrimidin-7(8H)-yl)but-2-en-1-one], for which the pEC50 (in experiment [1]; at HER2YVMA) was > 7.00 in each case.

Turning to `COc1cc(Nc2ncnc3sc4c(c23)CCN(C(=O)/C=C/CN(C)C)C4)ccc1Oc1ccccc1` [Compound 7, (E)-4-(dimethylamino)-1-(4-((3-methoxy-4-phenoxyphenyl)amino)-5,8-dihydropyrido[4′,3′:4,5]thieno[2,3-d]pyrimidin-7(6H)-yl)but-2-en-1-one], the pEC50 (in experiment [1]; on HER2YVMA) was > 7.00 in each case.

As to `COc1ccc(Oc2ccc(Nc3ncnc4sc5c(c34)CCN(C(=O)/C=C/CN(C)C)CC5)cc2C)cn1` [Compound 173, (E)-4-(Dimethylamino)-1-(4-((4-((6-methoxypyridin-3-yl)oxy)-3-methylphenyl)amino)-8,9-dihydro-5H-pyrimido[5′,4′:4,5]thieno[2,3-d]azepin-7(6H)-yl)but-2-en-1-one], the results for the pEC50 (in experiment [1]; at HER2YVMA) were > 7.00 and 6.46 to 7.00, respectively.

For the compound `Cc1ccc(Oc2ccc(Nc3ncnc4sc5c(c34)C(C)N(C(=O)/C=C/CN(C)C)C5)cc2C)cn1` (stereo not shown) [Compound 141, (E)-4-(dimethylamino)-1-(5-methyl-4-((3-methyl-4-((6-methylpyridin-3-yl)oxy)phenyl)amino)-5,7-dihydro-6H-pyrrolo[3′,4′:4,5]thieno[2,3-d]pyrimidin-6-yl)but-2-en-1-one], the pEC50 (in experiment [1]; on HER2YVMA) was > 7.00 throughout.

Consider `Cc1ccc(Oc2ccc(Nc3ncnc4sc5c(c34)CC(C)N(C(=O)C=CCN(C)C)C5C)cc2C)cn1` (single isomer, unassigned) [Compound 161], for which the pEC50 (in experiment [1]; at HER2YVMA) was > 7.00 throughout.

Turning to `Cc1ccc(Oc2ccc(Nc3ncnc4sc5c(c34)CCN(C(=O)/C=C/CN3CC4CCC(C3)O4)C5)cc2C)cn1` [Compound 13], the pEC50 (in experiment [1]; on HER2YVMA) was > 7.00 each time.

Regarding `Cc1ccc(Oc2ccc(Nc3ncnc4sc5c(c34)CCN(C(=O)/C=C/CN3C[C@H]4C[C@@H]3CC4C#N)C5)cc2C)cn1` (stereo partly shown) [Compound 120], the pEC50 (in experiment [1]; on HER2YVMA) was > 7.00 each time.

`C=CC(=O)N1[C@H](C)Cc2c(sc3ncnc(Nc4ccc(Oc5ccc(C)nc5)c(C)c4)c23)[C@H]1C` (racemic) [Compound 166, 1-(6,8-trans-dimethyl-4-((3-methyl-4-((6-methylpyridin-3-yl)oxy)phenyl)amino)-5,8-dihydropyrido[4′,3′:4,5]thieno[2,3-d]pyrimidin-7(6H)-yl)prop-2-en-1-one]: the pEC50 (in experiment [1]; on HER2YVMA) was > 7.00 in each case.

On to `Cc1ccc(Oc2ccc(Nc3ncnc4sc5c(c34)CCN(C(=O)/C=C/CN3CCC(O)C(C)(C)C3)C5)cc2C)cn1` (stereo not shown) [Compound 114], for which the pEC50 (in experiment [1]; on HER2YVMA) was > 7.00 each time.

As to `Cc1ccc(Oc2ccc(Nc3ncnc4sc5c(c34)CCN(C(=O)/C=C/CN3CCOCC3)C5)cc2C)cn1` [Compound 17, (E)-1-(4-((3-Methyl-4-((6-methylpyridin-3-yl)oxy)phenyl)amino)-5,6-dihydropyrido[4′,3′:4,5]thieno[2,3-d]pyrimidin-7(8H)-yl)-4-morpholinobut-2-en-1-one], the pEC50 (in experiment [1]; on HER2YVMA) was > 7.00 in each case.
